What follows are compounds tested against T1, MCH R1 (melanine-concentrating hormone receptor-1) (Homo sapiens, UniProt Q99705) (assay: Inhibitory effects on MCH R1 binding (Eu-MCH time-resolved fluorescence binding assay)). Conditions: concentration inhibiting the binding of MCH (Eu-MCH, 2 nM) to MCH R1 by 50% in vitro; TRF readout; test range 1 nM to 10 μM; read-out: IC50.
T1 construct: purchased Euroscreen, Gosselies, Belgium
Summary of the method: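 Receptor membranes were incubated 90 min at room temperature with 2 nM Eu-MCH and test compound (1 nM–10 μM final) in 25 mM HEPES pH 7.4, 5 mM MgCl2, 1 mM CaCl2, 0.5% BSA, then filter-washed. Nonspecific binding was defined with 0.5 μM MCH. Time-resolved fluorescence (ex 340/em 615 nm) gave percent inhibition of specific binding.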

T1 sequence (Q99705 whole entry, species assumed): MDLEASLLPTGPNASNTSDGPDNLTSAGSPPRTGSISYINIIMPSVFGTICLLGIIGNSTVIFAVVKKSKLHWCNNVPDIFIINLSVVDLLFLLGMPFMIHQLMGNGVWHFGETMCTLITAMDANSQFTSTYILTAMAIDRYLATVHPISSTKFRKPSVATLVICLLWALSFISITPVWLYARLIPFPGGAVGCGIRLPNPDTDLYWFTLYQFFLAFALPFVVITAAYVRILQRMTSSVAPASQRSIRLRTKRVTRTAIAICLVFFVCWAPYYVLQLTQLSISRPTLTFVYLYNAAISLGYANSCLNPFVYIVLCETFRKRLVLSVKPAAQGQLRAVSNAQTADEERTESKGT

| SMILES | IC50 [nM] |
| --- | --- |
| CC(=O)Nc1cccc(C2CCN(CCCn3c(-c4ccoc4)nc4ccccc43)CC2)c1 [Example 107, 2-(furan-3-yl)-1-{3-[4-(3-acetylaminophenyl)piperidin-1-yl]propyl}-1H-benzimidazole] | 25 |
| CC(=O)Nc1cccc(C2CCN(CCCn3c(-c4ccccc4Cl)nc4ccccc43)CC2)c1 [Example 9, 2-(2-chlorophenyl)-1-{3-[4-(3-acetylaminophenyl)piperidin-1-yl]propyl}-1H-benzimidazole] | 10 |
| CC(=O)Nc1cccc(C2CCN(CCCn3c(-c4ccccc4)nc4ccncc43)CC2)c1 [Example 72, 2-phenyl-3-{3-[4-(3-acetylaminophenyl)piperidin-1-yl]propyl}-3H-imidazo[4,5-c]pyridine] | 260 |
| CC(=O)Nc1cccc(C2CCN(CCCn3c(-c4ccccc4)nc4nc(C)ccc43)CC2)c1 [Example 75] | 23 |
| CCCCc1nc2c(C)c(-c3ccccc3)c(C)nc2n1CCCN1CCC(c2cccc(NC(=O)C(C)C)c2)CC1 [Example 100, 2-butyl-5,7-dimethyl-6-phenyl-3-{3-[4-(3-isobutyrylaminophenyl)piperidin-1-yl]propyl}-3H-imidazo[4,5-b]pyridine] | 320 |
| CC(=O)Nc1cccc(C2CCN(CCn3c(-c4ccc(Cl)cc4)nc4ccccc43)CC2)c1 [Example 2, 2-(4-chlorophenyl)-1-{2-[4-(3-acetylaminophenyl)piperidin-1-yl]ethyl}-1H-benzimidazole] | 6000 |
| CC(=O)Nc1cccc(C2CCN(CCCn3c(-c4cncc(Br)c4)nc4ccccc43)CC2)c1 [Example 112, 2-(5-bromopyridin-3-yl)-1-{3-[4-(3-acetylaminophenyl)piperidin-1-yl]propyl}-1H-benzimidazole] | 5 |
| CC(=O)Nc1cccc(C2CCN(CCCn3c(-c4ccc(Cl)cc4)nc4c(C)c(C)ccc43)CC2)c1 [Example 39, 2-(4-chlorophenyl)-1-{3-[4-(3-acetylaminophenyl)piperidin-1-yl]propyl}-4,5-dimethyl-1H-benzimidazole] | 7 |
| CC(=O)Nc1cccc(C2CCN(CCCn3c(-c4ccc([N+](=O)[O-])cc4Cl)nc4ccccc43)CC2)c1 [Example 57, 2-(2-chloro-4-nitrophenyl)-1-{3-[4-(3-acetylaminophenyl)piperidin-1-yl]propyl}-1H-benzimidazole] | 37 |
| CC(=O)Nc1cccc(C2CCN(CCCn3c(-c4ccccc4)nc4ccc([N+](=O)[O-])cc43)CC2)c1 [Example 32, 2-phenyl-1-{3-[4-(3-acetylaminophenyl)piperidin-1-yl]propyl}-6-nitro-1H-benzimidazole] | 10 |
| CC(=O)Nc1cccc(C2CCN(CCCn3c(-c4cc(F)c(F)c(F)c4F)nc4ccccc43)CC2)c1 [Example 44, 2-(2,3,4,5-tetrafluorophenyl)-1-{3-[4-(3-acetylaminophenyl)piperidin-1-yl]propyl}-1H-benzimidazole] | 77 |
| CC(=O)Nc1cccc(C2CCN(CCCn3c(-c4ccc(C)s4)nc4ccccc43)CC2)c1 [Example 110, 2-(5-methylthiophen-2-yl)-1-{3-[4-(3-acetylaminophenyl)piperidin-1-yl]propyl}-1H-benzimidazole] | 14 |
| COc1ncccc1-c1nc2ccccc2n1CCCN1CCC(c2cccc(NC(C)=O)c2)CC1 [Example 115, 2-(2-methoxypyridin-3-yl)-1-{3-[4-(3-acetamidophenyl)piperidin-1-yl]propyl}-1H-benzimidazole] | 67 |
| COc1ccc2c(c1)nc(-c1ccco1)n2CCCN1CCC(c2cccc(NC(C)=O)c2)CC1 [Example 119, 2-(furan-2-yl)-5-methoxy-1-{3-[4-(3-acetamidophenyl)piperidin-1-yl]propyl}-1H-benzimidazole] | 249 |
| O=C(Nc1cccc(C2CCN(CCCn3c(-c4ccc(Cl)cc4)nc4ccccc43)CC2)c1)c1cccc(Cl)c1 [Example 66, 2-(4-chlorophenyl)-1-{3-[4-(3-(3-chlorobenzoylamino)phenyl)piperidin-1-yl]propyl}-1H-benzimidazole] | 213 |
| COc1ccc(-c2nc3ccccc3n2CCCN2CCC(c3cccc(NC(C)=O)c3)CC2)c(OC)c1 [Example 58, 2-(2,4-dimethoxyphenyl)-1-{3-[4-(3-acetylaminophenyl)piperidin-1-yl]propyl}-1H-benzimidazole] | 22 |
| CC(=O)Nc1cccc(C2CCN(CCCn3c(-c4ccc(Cl)cc4)nc4ccc(F)cc43)CC2)c1 [Example 31, 2-(4-chlorophenyl)-1-{3-[4-(3-acetylaminophenyl)piperidin-1-yl]propyl}-6-fluoro-1H-benzimidazole] | 11 |
| COc1ccc2nc(-c3ccc(Cl)cc3)n(CCCN3CCC(c4cccc(NC(C)=O)c4)CC3)c2c1 [Example 28, 2-(4-chlorophenyl)-1-{3-[4-(3-acetylaminophenyl)piperidin-1-yl]propyl}-6-methoxy-1H-benzimidazole] | 55 |
| CC(=O)Nc1cccc(C2CCN(CCCCCn3c(-c4ccc(Cl)cc4)nc4ccccc43)CC2)c1 [Example 8, 2-(4-chlorophenyl)-1-{5-[4-(3-acetylaminophenyl)piperidin-1-yl]pentyl}-1H-benzimidazole] | 32 |
| CC(=O)Nc1cccc(C2CCN(CCCn3c(-c4ccsc4)nc4cc(C)ccc43)CC2)c1 [Example 120, 5-methyl-2-(thiophen-3-yl)-1-{3-[4-(3-acetamidophenyl)piperidin-1-yl]propyl}-1H-benzimidazole] | 1 |
| CCCCc1nc2c(C)cc(C)nc2n1CCCN1CCC(c2cccc(NC(=O)C(C)C)c2)CC1 [Example 99, 2-butyl-5,7-dimethyl-3-{3-[4-(3-isobutyrylaminophenyl)piperidin-1-yl]propyl}-3H-imidazo[4,5-b]pyridine] | 40 |
| CC(=O)Nc1cccc(C2CCN(CCCn3c(-c4ccccc4Cl)nc4cc(C)c(C)cc43)CC2)c1 [Example 37, 2-(2-chlorophenyl)-1-{3-[4-(3-acetylaminophenyl)piperidin-1-yl]propyl}-5,6-dimethyl-1H-benzimidazole] | 39 |
| CC(=O)Nc1cccc(C2CCN(CCCn3c(-c4ccccc4)nc4ccc(C)nc43)CC2)c1 [Example 69, 5-methyl-2-phenyl-3-{3-[4-(3-acetylaminophenyl)piperidin-1-yl]propyl}-3H-imidazo[4,5-b]pyridine] | 22 |
| CC(=O)Nc1cccc(C2CCN(CCCn3c(-c4ccccc4Cl)nc4ccc([N+](=O)[O-])cc43)CC2)c1 [Example 40, 2-(2-chlorophenyl)-1-{3-[4-(3-acetylaminophenyl)piperidin-1-yl]propyl}-6-nitro-1H-benzimidazole] | 82 |
| CC(=O)Nc1cccc(C2CCN(CCCn3c(-c4ccc(Cl)nc4)nc4ccccc43)CC2)c1 [Example 113, 2-(6-chloropyridin-3-yl)-1-{3-[4-(3-acetamidophenyl)piperidin-1-yl]propyl}-1H-benzimidazole] | 1 |
| CC(=O)Nc1cccc(C2CCN(CCCn3c(-c4ccccc4)nc4ccc(F)cc43)CC2)c1 [Example 26, 2-phenyl-1-{3-[4-(3-acetylaminophenyl)piperidin-1-yl]propyl}-6-fluoro-1H-benzimidazole] | 7 |
| CC(=O)Nc1cccc(C2CCN(CCCn3c(-c4ocnc4C)nc4ccccc43)CC2)c1 [Example 123, 2-(4-methyloxazol-5-yl)-1-{3-[4-(3-acetamidophenyl)piperidin-1-yl]propyl}-1H-benzimidazole] | 3 |

Source: patent publication US8198307B2, “Imidazole derivatives having aryl piperidine substituent, method for preparation thereof and pharmaceutical compositions containing same” (Korea Research Institute of Chemical Technology, priority 2007, dated 2012)
